In patent publication EP0705259B1, “PHENYRROLE DERIVATIVES AND THEIR USE AS DOPAMINE D3 ANTAGONISTS” (SMITHKLINE BEECHAM PLC, priority 1993, dated 1995):
Where a name gives a salt, the structure may show the parent alone.

Target: T1, human D3 dopamine receptors (Homo sapiens, UniProt P35462)
T1 construct: expressed in transfected cells; host or cells: CHO cells (crude cell membranes)
Experiment: biochemical
Assay type: binding
Conditions: human D3 receptor; CHO cell membranes, 0.1 nM [125I] iodosulpride, 30 min at 37°C
Procedure: Cultures were grown as monolayers or in suspension in standard cell culture media. Cells were recovered by scraping (from monolayers) or by centrifugation (from suspension cultures), and were washed two or three times by suspension in phosphate buffered saline followed by collection by centrifugation. Cell pellets were stored frozen at -40°C. Crude cell membranes were prepared by homogenisation followed by high-speed centrifugation, and characterisation of cloned receptors achieved by radioligand binding.
Cell pellets were gently thawed at room temperature, and resuspended in about 20 volumes of ice-cold 50 mM Tris salts (pH 7.4 @ 37°C), 20mM EDTA, 0.2 M sucrose. The suspension was homogenised using an Ultra-Turrax (TM) at full speed for 15 sec. The homogenate was centrifuged at 18,000 r.p.m for 20 min at 4°C in a Sorvall RC5C centrifuge. The membrane pellet was resuspended in ice-cold 50 mM Tris salts (pH 7.4 @ 37°C), using an Ultra-Turrax (TM), and recentrifuged at 18,000 r.p.m for 15 min at 4°C in a Sorvall RC5C. The membranes were washed two more times with ice-cold 50 mM Tris salts (pH 7.4 @ 37°C). The final pellet was resuspended in 50 mM Tris salts (pH 7.4 @ 37°C), and the protein content determined using bovine serum albumin as a standard (Bradford, M. M. (1976) Anal. Biochem. 72, 248-254).
Crude cell membranes were incubated with 0.1 nM [^125I] iodosulpride (∼2000 Ci/mmol; Amersham, U. K.), and the test compound in a buffer containing 50 mM Tris salts (pH 7.4 @ 37°C), 120 mM NaCl, 5 mM KCl, 2 mM CaCl2, 1 mM MgCl2, 0.1% (w/v) bovine serum albumin, in a total volume of 1 ml for 30 min at 37°C. Following incubation with the test compound, samples were filtered using a Brandel Cell Harvester (TM), and washed three times with ice-cold 50 mM Tris salts (pH 7.4 @ 37°C), 120 mM NaCl, 5 mM KCl, 2 mM CaCl2, 1 mM MgCl2. The radioactivity on the filters was measured using a Cobra (TM) gamma counter (Canberra Packard). Non-specific binding was defined as the radioligand binding remaining after incubation in the presence of 100 µM iodosulpride. For competition curves, 14 concentrations (half-log dilutions) of competing cold drug were used.
Competition curves were analysed simultaneously whenever possible using non-linear least-squares fitting procedures, capable of fitting one, two or three site models.

T1 sequence (P35462 whole entry): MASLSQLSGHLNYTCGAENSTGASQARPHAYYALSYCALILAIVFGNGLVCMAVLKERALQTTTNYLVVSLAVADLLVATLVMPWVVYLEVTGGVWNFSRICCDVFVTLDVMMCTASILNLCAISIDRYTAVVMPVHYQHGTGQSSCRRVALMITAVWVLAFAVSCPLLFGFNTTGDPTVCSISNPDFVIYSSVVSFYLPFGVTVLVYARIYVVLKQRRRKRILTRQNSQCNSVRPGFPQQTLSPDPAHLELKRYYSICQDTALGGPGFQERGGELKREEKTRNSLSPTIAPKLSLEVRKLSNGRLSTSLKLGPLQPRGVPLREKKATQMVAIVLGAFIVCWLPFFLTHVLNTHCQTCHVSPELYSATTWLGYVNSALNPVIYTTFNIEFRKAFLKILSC

IC50, 1 to 50 nM:
CCS(=O)(=O)c1ccc(OC)c(-c2ccc(CN3CCCCCC3c3ccccc3)[nH]2)c1 (racemic) [Example 3, 2-(5-Ethylsulphonyl-2-methoxyphenyl)-5-(1-(2-(R,S)-phenylazacycloheptyl)-methyl)-1H-pyrrole, hydrochloride]
CCS(=O)(=O)c1cc(Br)c(OC)c(-c2ccc(CN3CCCCCC3c3ccccc3)[nH]2)c1 (racemic) [Example 6, 2-(3-Bromo-5-ethylsulphonyl-2-methoxyphenyl)-5-(1-(2-(R,S)-phenylazacycloheptyl)methyl)-1H-pyrrole, hydrochloride]
CCS(=O)(=O)c1ccc(OC)c(-c2ccc(CN3CCCCC[C@@H]3c3ccccc3)[nH]2)c1 [Example 10, 2-(5-Ethylsulphonyl-2-methoxyphenyl)-5-(1-(2-(R)-phenylazacycloheptyl)methyl)-1H-pyrrole, oxalate]
CCS(=O)(=O)c1ccc(OC)c(-c2ccc(CN3CCCCC[C@H]3c3ccccc3)[nH]2)c1 [Example 11, 2-(5-Ethylsulphonyl-2-methoxyphenyl)-5-(1-(2-(S)-phenylazacycloheptyl)methyl)-1H-pyrrole, oxalate]
COc1ccc(S(=O)(=O)N2CCOCC2)cc1-c1ccc(CN2CCCCC[C@@H]2c2ccccc2)[nH]1 [Example 13, 2-(2-Methoxy-5-(4-morpholinyl)sulphonylphenyl)-5-(1-(2-(R)-phenylazacycloheptyl)methyl)-1H-pyrrole, oxalate]
